The source of these data is patent US12054510B2, “2′ and/or 5′ amino-acid ester phosphoramidate 3′-deoxy adenosine derivatives as anti-cancer compounds” (Nucana plc, priority 2014, dated 2024).

A word on the IC50: it is the concentration that inhibits the measured activity by half.

The subject of data set [1] is HL-60. Nature of the data set: CellTiterGlo cell viability assay, initial screening. In kind it is cell-based. The settings on record: for M.I. %: maximum percentage inhibition of cell viability: HL-60, 72 hr, Table II; for IC50: Homo sapiens, HL-60, 72 h, read-out: IC50 (relative IC50). On the procedure:
(§1) In vitro viability assays were performed to assess the effects of compounds on cell viability in 7 selected cell lines over 72 hr using the CellTiterGlo (CTG, Promega-G7573) assay. The tests were performed in duplicates with treatment of compounds at 9 points, 3.16 folds titration in 96 well plates over ˜72 hr. The compound starting concentrations were […]. Cell viability assay using CellTiterGlo in 96-well plate were performed. The compound treatment was 72 hrs, under standard growth conditions, and in duplicate. Compounds were dissolved to 40 mM with thawed […]. Compounds were serially diluted at 3.16 fold in thawed DMSO, and warmed to 37° C. before being dissolved in media (2 μl+200 μl). After compounds were dissolved in media (media was also warmed to 37° C.). Media containing compounds were warmed to 37° C. in incubator and then compounds in media were added to cell plates (50 μl+50 μl), in duplicates. The compounds final concentrations were from […] to 19.9 nM. All compound solubilities were checked and recorded again, then the plates were transferred to CO2 tissue culture incubator immediately and incubated for 3 days. DMSO final concentration is 0.5%.
(In general: Cellular ATP, detected with luciferase, serves as a proxy for viable cell number.)

Data set [2] deals with K562. Described as above. In kind it is cell-based. The settings on record: 72 hr, Table II. As for the experimental part: as §1
Data set [3] concerns KG-1. The data set is described as above. In kind it is cell-based. The note with it: KG-1; 72 hr; Table II. As for the experimental part:
as §1

A further data set concerns HEL92.1.7. Nature of the data set: Solid tumour and haematological malignancy assay (CellTiterGlo). It is filed as cell-based. The note with it: Homo sapiens, HEL 92.1.7, 72 h, read-out: MI %. On the procedure:
(§2) In vitro viability assay were performed to assess the effects of compounds on cell viability in selected cell lines over 72 hr using the CellTiterGlo (CTG, Promega-G7573) assay. […] Cell viability assay using CellTiterGlo in 96-well plate were performed. Compound treatment 72 hrs, standard growth conditions, duplicates. Compounds were dissolved to 40 mM with thawed 100%. […] After compounds were dissolved in media, media containing compounds were warmed to 37° C. in incubator and then compounds in media were added to cell plates (50 μl+50 μl) in duplicates. […] All compound solubilities were checked and recorded again, then the plates were transferred to CO2 tissue culture incubator immediately and incubated for 3 days. DMSO final concentration is 0.5%.

Data set [4] has as its system HL-60. Described as above. In kind it is cell-based. The note with it: Homo sapiens, HL-60, 72 h, read-out: MI %. On the procedure:
as §2

For the next data set, the system named is HT29. The data set is described as above. In kind it is cell-based. The settings on record: Homo sapiens, HT-29, 72 h; for IC50: read-out: IC50 (absolute IC50); for Emax: read-out: MI %. On the procedure: as §2
In the next data set the test system is HepG2. Described as above. In kind it is cell-based. The note with it: Homo sapiens, HepG2, 72 h; for Emax: read-out: MI %. On the procedure:
as §2

Data set [5] deals with K562. The description is as above. In kind it is cell-based. The settings on record: Homo sapiens, K562, 72 h; for IC50: read-out: IC50 (absolute IC50); for Emax: read-out: MI %. On the procedure:
as §2

In data set [6] the test system is KG-1. The data set is described as above. The note with it: Homo sapiens, KG-1, 72 h; for IC50: read-out: IC50 (absolute IC50); for Emax: read-out: MI %. It is filed as cell-based. On the procedure: as §2
A further data set deals with MCF7. The data set is described as above. In kind it is cell-based. The settings on record: Homo sapiens, MCF7, 72 h; for IC50: read-out: IC50 (absolute IC50); for Emax: read-out: MI %. As for the experimental part:
as §2

Another data set concerns MiaPaCa-2. Described as above. In kind it is cell-based. The settings on record: Homo sapiens, MIA PaCa-2, 72 h, read-out: MI %. On the procedure:
as §2

The subject of another data set is CEM (TdT+ve). Put plainly: ATP ViaLight plus cell viability assay. In kind it is cell-based, Human. The note with it: for (FD) fold difference compared to control: CEM. On the procedure:
Certain compounds of the invention were subjected to further studies to test the cytotoxic activity of certain compounds of the invention and also to measure their activity against 4 haematological cancer cell lines • TdT positive CEM (Human ALL) • TdT negative K562 (Human CML) • TdT negative H1-60 (Human ANLL) • RL (CRL-2261) non-HD lymphoma • The concentrations of the active metabolite dATP (Cordycepin triphosphate) in these cell lines was also measured. • The cytotoxic activity and the intracellular 3′-dATP concentrations were also studied in the presence of hENT1, Adenosine Kinase (AK) and Adenosine Deaminase pharmacological inhibitors in CEM and RL cancer cell lines. Said inhibitors that mimic known cancer resistance mechanisms. Methods Cell Culture
HL-60, K562, CCRF-CEM and RL cell lines were cultured in RPMI-1640 medium (Sigma Aldrich, UK), which were supplemented with 10% Fetal Bovine Serum (FBS) (PAA Laboratories), 1% amphotericin B (5.5 ml) and 1% penicillin/streptomycin (5.5 ml) (PAA Laboratories) and grown in flasks at 37° C. incubator with 5% CO2.
The amount of ATP was used as a measurement of cell number and cell viability. ATP ViaLight™ plus assay kit (Lonza, USA: Product No. LT07-121) to detect ATP in cells treated in luminescence compatible 96 well plates (initial concentration of cells was 1×10^4 cells/well) with cordycepin and ProTides at concentrations of: 0, 0.1, 0.5, 1, 5 and 10 μM, followed by incubation for 72 hours at 37° C. incubator with 5% CO2. For inhibitor studies, 10 μM of NBTI or 1 μM EHNA or A-134974 was added and left for 5 minutes before adding the drugs (see section 5 for inhibitor details).
After incubation, 50 μl of cell lysis reagent was added to the 96 well plates to release the intracellular ATP, followed by 100 μl of ATP monitoring reagent (AMR). The luminescent values of each well were determined using FLUOstar OPTIMA microplate reader (BMG Labtech) which convert ATP into light by using luciferase enzyme. Therefore, the amount of luminescence produced was directly proportional to the amount of ATP.
Cell lines were treated in the same way as described above but before treatment with drugs, a number of inhibitors were added: • 1) Nitrobenzylthioinosine (NBTI) (Sigma-Aldrich, St. Louis, MO, product # N2255) blocks nucleoside transporters • 2) EHNA hydrochloride (Sigma-Aldrich, St. Louis, MO, product # E114) blocks adenosine deaminase • 3) Adenosine kinase inhibitor A-134974 dihydrochloride hydrate (Sigma-Aldrich, St. Louis, MO, product # A2846): blocks adenosine kinase
The dose-response curves of cytotoxicity of the drugs was determined using non-linear regression analysis of percentage cell viability versus concentration and EC50 values were obtained. The intracellular assay was conducted in five replicates for each condition. Intracellular assay was determined using paired t test (two-tailed) analysis of 3′ ATP/ATP concentration and p-values were obtained. For all the analysis, Prism Software program (GraphPad Software) was used and Microsoft Powerpoint® 2013 was used to plot the results.

Turning to `C[C@H](NP(=O)(OC[C@@H]1C[C@@H](O)[C@H](n2cnc3c(N)ncnc32)O1)Oc1cccc2ccccc12)C(=O)OCc1ccccc1` (stereo partly drawn) [B, (2S)-benzyl 2-(((((2S,4R,5R)-5-(6-amino-9H-purin-9-yl)-4-hydroxytetrahydrofuran-2-yl)methoxy)(naphthalen-1-yloxy)phosphoryl)amino)propanoate], the “M.I. %: maximum percentage inhibition of cell viability” value (from here on “M.I. %: maximum percentage inhibition”) in the data set on HL-60 [1] came to 100%; with K562 [2] it was 97%; in the data set on KG-1 [3], 100%. Moreover, the IC50 in the data set with HL-60 [1] was 5 to 15 µM; with HT29, 5 to 15 µM; with K562 [5], 0.1 to 5 µM; with KG-1 [6] it was 5 to 15 µM; in the data set on MCF7, 0.1 to 5 µM. Further, the Emax in the data set with HEL92.1.7 is 98%; in the data set on HL-60 [4], 99%; with HT29, 98%; in the data set on HepG2 it was 98%; with K562 [5], 99%; in the data set on KG-1 [6] it was 97%. Moreover, the Emax in the data set with MCF7 was determined as 96%; in the data set with MiaPaCa-2, 98%. Also, the “(FD) fold difference compared to Cordycepin = Cordycepin IC50/ProTide IC50” value in the data set with CEM (TdT+ve) (CEM (TdT+ve)) was 150. Also, the “(FD) fold difference compared to control” value with CEM (TdT+ve) (AK), with CEM (TdT+ve) (EHNA) and with CEM (TdT+ve) (NBTI) was 1 throughout.
In the case of `COC(=O)C(C)(C)NP(=O)(OC[C@@H]1C[C@@H](O)[C@H](n2cnc3c(N)ncnc32)O1)Oc1cccc2ccccc12` (stereo partly drawn) [E, Methyl 2-(((((2S,4R,5R)-5-(6-amino-9H-purin-9-yl)-4-hydroxytetrahydrofuran-2-yl)-methoxy)(naphthalen-1-yloxy)phosphoryl)amino)-2-methylpropanoate], the entries for the “M.I. %: maximum percentage inhibition” value with HL-60 [1], in the data set on K562 [2] and in the data set on KG-1 [3] were 74%, 81% and 69%, respectively. In addition, the IC50 with HL-60 [1] lay in the range of 15 to 100 µM; in the data set with HT29, 15 to 100 µM; in the data set with HepG2 (read-out: IC50 (absolute IC50)) it was 15 to 100 µM; in the data set on K562 [5], 5 to 15 µM; in the data set on KG-1 [6], 15 to 100 µM; in the data set on MCF7 it was 5 to 15 µM. Besides, the Emax in the data set with HEL92.1.7 was 101%; with HL-60 [4], 95%; in the data set on HT29 it was 76%; in the data set with HepG2 it was 67%; in the data set on MCF7, 89%; with MiaPaCa-2 it was 91%. Also, the “(FD) fold difference compared to Cordycepin = Cordycepin IC50/ProTide IC50” value with CEM (TdT+ve) (CEM (TdT+ve)) came out at 2. The “(FD) fold difference compared to control” value is 1 in the data set on CEM (TdT+ve) (AK), 1 in the data set with CEM (TdT+ve) (EHNA) and 2 with CEM (TdT+ve) (NBTI).
For the compound `CCOC(=O)CCc1ccccc1OP(=O)(N[C@@H](C)C(=O)OCc1ccccc1)OC[C@@H]1C[C@@H](O)[C@H](n2cnc3c(N)ncnc32)O1` (stereo partly drawn) [F, (2S)-benzyl 2-(((((2S,4R,5R)-5-(6-amino-9H-purin-9-yl)-4-hydroxytetrahydrofuran-2-yl)methoxy)(2-(3-ethoxy-3-oxopropyl)phenoxy)phosphoryl)amino)propanoate], the “M.I. %: maximum percentage inhibition” value is on record as 100% in the data set on HL-60 [1], 91% in the data set on K562 [2] and 98% with KG-1 [3]. In addition, the IC50 in the data set with HL-60 [1] is 15 to 100 µM; in the data set with HT29, 15 to 100 µM; in the data set with KG-1 [6], 15 to 100 µM; in the data set with MCF7, 5 to 15 µM; in the data set on CEM (TdT+ve) (Homo sapiens, 72 h, CEM (TdT+ve), 72 hours), 4.3 µM. Moreover, the Emax in the data set on HEL92.1.7 was found to be 99%; with HL-60 [4] it was 96%; with HT29 it was 89%; in the data set on HepG2 it was 79%; with K562 [5], 93%; in the data set with KG-1 [6], 95%. Besides, the Emax with MCF7 was 103%; with MiaPaCa-2, 101%. In addition, the “(FD) fold difference compared to Cordycepin = Cordycepin IC50/ProTide IC50” value in the data set with CEM (TdT+ve) (CEM (TdT+ve)) was determined as 5.
